Molecules are shown by their SMILES.

The experiment has as its target T1, adenosine A2A receptor (Homo sapiens, UniProt P29274).
T1 construct: gene ADORA2A
Kind of experiment: radioligand displacement (agonist radioligand), single concentration […] in duplicate; […] of control remaining ([…] inhibition). In kind it is binding.

T1 sequence (P29274 whole entry): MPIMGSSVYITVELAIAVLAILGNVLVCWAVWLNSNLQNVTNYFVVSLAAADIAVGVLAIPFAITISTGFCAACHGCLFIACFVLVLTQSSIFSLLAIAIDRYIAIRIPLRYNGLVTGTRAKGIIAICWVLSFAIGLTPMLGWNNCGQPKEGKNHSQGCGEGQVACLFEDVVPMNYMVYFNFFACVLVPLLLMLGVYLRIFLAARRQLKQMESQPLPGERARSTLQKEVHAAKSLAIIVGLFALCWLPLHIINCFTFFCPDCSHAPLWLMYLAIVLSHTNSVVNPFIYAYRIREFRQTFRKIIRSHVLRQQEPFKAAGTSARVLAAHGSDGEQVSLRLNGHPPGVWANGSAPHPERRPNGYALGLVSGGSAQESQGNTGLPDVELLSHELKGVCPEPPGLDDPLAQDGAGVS

With `Cc1nn(Cc2cccc(C(=O)O)c2)c2nc(-c3ccncc3)[nH]c(=O)c12` [SAN4825], 10 µM produced 81% inhibition.

The values above are taken from article PMC3367138, “Selective inhibitors of cardiac ADPR cyclase as novel anti-arrhythmic compounds” (Naunyn-Schmiedeberg's Archives of Pharmacology, 2012).
